Columns and labels:
[1] = Levels of D-030 in circulation (air pouch test); assay type: in vivo; details: rat, blood, po; rats, 100 mg/kg in PEG 400 orally, twelve hours following dosing; read-out: Average compound in circulation
Description: (§1) The test was performed as follows: on day zero, groups of rats were shaved and 10 ml of air was injected subcutaneously on the back of each, forming a pouch. On day three, 10 ml of air was reinjected. […] Six hours following dosing, the air pouches of both groups received 2.5 ng of TNF. Twelve hours following dosing, the pouches were washed with saline, and the resulting lavage fluid was analyzed for leukocyte counts and neutrophil elastase activity. In addition, blood was drawn to determine the levels of D-030 in circulation. […] Reductions in specific leukocyte counts were as follows: neutrophils (90%), eosinophils (66%), and lymphocytes (70%).

[2] = test system: rats; experiment: Six-day air pouch model, TNF challenge, leukocyte counts and neutrophil elastase in lavage fluid; assay type: in vivo, rat; details: 100 mg/kg orally, TNF 2.5 ng
Description: The six-day air pouch model is an in vivo inflammation model that histologically resembles a joint synovium. A lining of organized mononuclear cells and fibroblasts develops that closely resembles a synovial cavity. The model represents an “acute” model of a chronic disease (e.g., rheumatoid arthritis). This model allows for the in vivo evaluation of agents to block cellular influx into the air pouch under the influence of an inflammatory stimulus.
as §1

[3] = test system: Murine splenocytes (Balb/c); experiment: B cell proliferation in response to cell surface IgM stimulation; assay type: cell-based; details: Mus musculus, Splenocyte; stimulated B cell proliferation; read-out: Mouse BCR Stim (EC50)
Summary of the method: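 Balb/c splenocytes (2×10^5/well, 10% FBS/RPMI) preincubated 30-60 min with inhibitor, then stimulated with goat F(ab′)2 anti-mouse IgM μ-chain at 25 μg/mL final. Cultured 3 days at 37° C., [^3H]-thymidine pulsed for final 4 h; incorporation counted as CPM. Values are EC50 (μM).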

[4] = test system: human neutrophils; experiment: fMLP-induced human neutrophil migration; assay type: cell-based; details: neutrophil (PMN) migration, read-out: Human PMN Migration (EC50)
Description: Neutrophils have the intrinsic capacity to migrate through tissues, and are one of the first cell types to arrive at the sites of inflammation or tissue injury. The effect of D-000 on neutrophil migration towards a concentration gradient of fMLP was measured. The day before the migration assays were performed, 6-well plates were coated with recombinant ICAM-1/Fc fusion protein (Van der Vieren et al., Immunity, 3:683-690 (1995)) (25 μg/mL in bicarbonate buffer, pH 9.3) and left overnight at 4° C. After washing, 1% agarose solution, in RPMI-1640 with 0.5% bovine serum albumin (BSA), was added to wells with or without an inhibitor, and plates were placed into a refrigerator before punching holes in the gelled agarose to create plaques (1 central hole surrounded by 6 peripheral ones per well).
Human neutrophils were obtained as described above, and resuspended in RPMI medium supplemented with 0.5% BSA at 5×10^6 cells/mL. After combining equal volumes of neutrophil suspension and medium (either with DMSO or a serial dilution of the test compound in DMSO), neutrophils were aliquoted into the peripheral holes, while the central hole received fMLP (5 μM). Plates were incubated at 37° C. in the presence of 5% CO2 for 4 hr, followed by termination of migration by the addition of 1% glutaraldehyde solution in D-PBS. After removing the agarose layer, wells were washed with distilled water and dried.
Analysis of neutrophil migration was conducted on a Nikon DIAPHOT® inverted microscope (1× objective) video workstation using the NIH 1.61 program. Using Microsoft Excel and Table Curve 4 (SSPS Inc., Chicago Ill.) programs, a migration index was obtained for each of the studied conditions. Migration index was defined as the area under a curve representing number of migrated neutrophils versus the net distance of migration per cell.
Using the methods described in Examples 3-5, above, compounds of the invention were tested for inhibitory activity and potency in assays of stimulated B and T cell proliferation, neutrophil (PMN) migration, and neutrophil (PMN) elastase release. In Table 4, the values shown are effective concentrations of the compound (EC50; μM). Where no value is given, no assay was performed.

[5] = test system: mouse; experiment: Mouse air pouch, TNF-α challenge, elastase exocytosis in lavage; assay type: in vivo; details: 32 mg/kg in LABRAFIL one hour before and two hours after TNF-α, FIG. 9
[6] = test system: human neutrophils; experiment: Elastase exocytosis from neutrophils (fMLP-induced); assay type: cell-based; details: neutrophil (PMN) elastase release
Summary of the method: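 Human blood neutrophils (Ficoll-Hypaque) treated with compound or DMSO, then stimulated 90 min at 37 °C with 1 μM fMLP plus 0.01 mg/mL cytochalasin B, 1.0 μM NaN3 and 5 μg/mL L-methionine. Supernatant elastase read at 410 nm over 2 h on MeO-suc-AAPV-pNA, normalized to uninhibited; EC50 in μM.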

[7] = test system: T cell proliferation; experiment: Stimulated T cell proliferation (Mouse TCE Stim, Table 4); assay type: cell-based; details: stimulated T cell proliferation, read-out: Mouse TCE Stim (EC50)

Cc1ccccc1-n1c(Cn2cnc3c(N)ncnc32)nc2cccc(C)c2c1=O [Compound D-030, 2-(6-Aminopurin-9-ylmethyl)-5-methyl-3-o-tolyl-3H-quinazolin-4-one]
concentration at 12 h [1]: 8.7 µM | Reduction in eosinophils count in lavage fluid [2]: 66% | Reduction in lymphocytes count in lavage fluid [2]: 70% | Reduction in neutrophils count in lavage fluid [2]: 90% | Reduction in total leukocytes in the lavage fluid compared to vehicle controls [2]: 82% | Reduction of neutrophil elastase levels versus vehicle controls [2]: 15% | EC50 [3]: 100 ± 100 nM | EC50 [4]: 200 nM | Elastase activity in the air pouch lavages of TNF challenged animals [5]: significant decrease | EC50 [6]: 400 ± 500 nM | EC50 [7]: 6000 nM
